Experiment [1] deals with Tsc1+/− mice. The experiment in a line: In vivo intracortical EEG recordings of spontaneous seizures in Tsc1+/− mice (mouse model of Tuberous Sclerosis). The settings on record: i.p. injection. As to the method:
This study followed the Institut National de la Santé et de la Recherche Médicale guidelines for animal care. All experiments were performed on postnatal days P9-P20 of inbred C57Bl6 strain of both sexes of Tsc1^mut/wt (Tsc1^+/−) mice issued from breeding of C57Bl6 Tsc1^wt females and Tsc1^mut/wt males Tsc1^mut/wt.
Surgery was performed under isoflurane anesthesia. In brief, the skull of the animal was cleaned of skin and periosteum. The skull was covered by glue and dental cement except for a 4-9 mm^2 window above the somatosensory cortex from one or two hemispheres. Two plastic bars were fixed to the nasal and occipital bones of the pups head by dental cement. After surgery, animals were warmed, and left for an hour for recovery from anesthesia. During recordings, the head was fixed to the frame of the stereotaxic apparatus by attached bars; animals were surrounded by a cotton nest and heated via a thermal pad (36.6° C.-37.7° C.). […]
Electroencephalography (EEG) recordings were performed in non-anesthetized head-restrained Tsc1^+/− and control Tsc1^wt mice. […] Recordings were analyzed off-line using Clampfit and MATLAB software. […] During EEG recordings animals were monitored visually to determine behavioral correlates of each electrographic epileptic discharge. […] Local field potentials were analyzed by the custom-written, MATLAB based programs. […]

For experiment [2], the system named is L5 interneurons in cortical slices from Tsc1+/− mice. The experiment in a line: Ex vivo whole-cell patch-clamp recordings in cortical slices from Tsc1+/− mice. Format: cell-based, mouse. On the procedure: Wild type and Tsc1^+/− mice (P14-P16) were anaesthetized with ether and killed by decapitation in agreement with the European Directive 86/609/EEC requirements. The brain was rapidly removed and placed in an oxygenated ice-cold saline buffer. Transverse 300 μm-thick coronal slices were cut using a vibratome (Leica VT1000S; Leica Microsystems Inc., Deerfield, Ill.) in ice-cold protecting solution oxygenated with 95% O2 and 5% of CO2. Prior to recording, slices were incubated in an artificial cerebrospinal fluid (ACSF) solution containing (in mM): 125 NaCl, 3.5 KCl, 1 CaCl2, 2 MgCl2, 1.25 NaH2PO4, 26 NaHCO3, and 10 glucose, equilibrated at pH 7.3 with 95% O2 and 5% CO2 at room temperature (22-25° C.) for at least 1 h to allow recovery.
Slices were transferred to the recording chamber and perfused with oxygenated recording ACSF at 3 ml/min. Neurons were visualized using infrared differential interference contrast (IR-DIC) microscopy. […] It was not compensated and was monitored during each experiment. […]
Wild type and Tsc1^+/− mice (P14-P16) were anaesthetized, their brains removed rapidly and placed in an oxygenated ice-cold saline buffer. […] The effects of AppCH2ppA administration were monitored post slice administration ex vivo. […]

For experiment [3], the system named is CA1 pyramidal neurons in hippocampal slices. The experiment is described as follows: Ex vivo murine hippocampal slice model of epilepsy (picrotoxin, Mg2+-free). It counts as cell-based, mouse. The settings on record: epileptic conditions: picrotoxin 100 μM, Mg2+ free perfusion solution; dose response. On the procedure:
Slices were prepared and used as described previously (Melnik S, Wright M, Tanner J A, Tsintsadze T, Tsintsadze V, Miller A D, Lozovaya N (2006) Diadenosine polyphosphate analog controls postsynaptic excitation in CA3-CA1 synapses via a nitric oxide-dependent mechanism. J Pharmacol Exp Ther 318 (2):579-588. doi:10.1124/jpet.105.097642).
Slices were prepared as described previously (Melnik S, Wright M, Tanner J A, Tsintsadze T, Tsintsadze V, Miller A D, Lozovaya N (2006) Diadenosine polyphosphate analog controls postsynaptic excitation in CA3-CA1 synapses via a nitric oxide-dependent mechanism. J Pharmacol Exp Ther 318 (2):579-588. doi:10.1124/jpet.105.097642). Addition of picrotoxin (100 μM) and removal of Mg^2+ in the perfusion solution induced spontaneous epileptiform events lasted for 5-10 s (FIG. 7). […] In the continued presence of picrotoxin and Mg^2+ free extracellular solution, bursting at this rate continued for at least 2 h. The effects of AppCH2ppA administration were monitored post slice administration ex vivo (FIGS. 8 and 9a).

SMILES strings stand for the structures. “Also recorded” adds a separate entry of the source.

With `Nc1ncnc2c1ncn2[C@@H]1O[C@H](COP(=O)(O)OP(=O)(O)CP(=O)(O)OP(=O)(O)OC[C@H]2O[C@@H](n3cnc4c(N)ncnc43)C(O)C2O)C(O)C1O` (some centres unmarked) [AppCH2ppA], the “anti-epileptic effect (spontaneous seizure activity)” value in experiment [1] (30 μM in 200 μl (6 nmol; 300 nmol/kg or 0.25 mg/kg), Tsc1+/− mice) is reported as “partial”; in experiment [1] (100 μM in 200 μl (20 nmol; 1000 nmol/kg or 0.84 mg/kg), Tsc1+/− mice P14-P16) it was “eliminates seizures virtually completely; also recorded: essentially complete anti-epileptic effect”. Also, the “spontaneous glutamatergic activity from L5 interneurons” value in experiment [2] (bath administration, 10 μM, Vh=−70 mV, cortical slices from Tsc1+/− mice) was “desensitizes glutamatergic activity relative to control”. Moreover, in experiment [2] (ex vivo, cortical slices, P14-P16 mice), the “seizure like electrical impulses on individual cortical neurons” value is “inhibits seizure like electrical impulses”.
`Nc1ncnc2c1ncn2[C@@H]1O[C@H](COP(=O)(O)OP(=O)(O)NP(=O)(O)OP(=O)(O)OC[C@H]2O[C@@H](n3cnc4c(N)ncnc43)[C@H](O)[C@@H]2O)[C@@H](O)[C@H]1O` [AppNHppA]: the “antiepileptic effect on frequency of epileptiform discharges” value in experiment [3] is “completely inactive”.

The values above are taken from patent US20160354402A1, “COMPOSITIONS” (GLOBALACORN LTD, priority 2013, published 2016).
